The source of these data is patent US8921546B2, “Imidazolothiazole compounds for the treatment of disease” (Ambit Biosciences Corporation, priority 2006, dated 2014).

Structures are written as SMILES. Where a name gives a salt, the structure may show the parent alone. Read-outs that look alike come from different tables or passages of the source.

Experiment [1] addresses T1, CSF1R (Homo sapiens, UniProt P07333).
T1 construct: made in house
Put plainly: Binding constant (Kd) measurement, phage-displayed kinase competition binding assay, CSF1R. In outline: (§1)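 Competition binding used human kinases fused to T7 phage and immobilized ATP-site ligands. Compound binding blocks kinase capture on the solid support. Bound phage-kinase was quantified by plaque assay or qPCR of the phage genome to give Kd.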

In experiment [2] the test system is MV4-11 cells. Briefly: Cellular proliferation assay (MTS), MV4-11. Type of experiment: cell-based. The note with it: Homo sapiens. In outline: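 FLT3-ITD MV4-11 cells, 10,000/well in DMEM with 0.5% serum, exposed to compounds 3 days at 37 °C, 5% CO2. Viability read colorimetrically after 2 h MTS tetrazolium reduction; WT-FLT3 RS4-11 cells (20,000/well, RPMI 0.5% serum, 2 days) serve as control.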

For experiment [3], the target named is T2, FLT3 (Homo sapiens, UniProt P36888).
T2 construct: made in house
T2 sequence (P36888 27-993): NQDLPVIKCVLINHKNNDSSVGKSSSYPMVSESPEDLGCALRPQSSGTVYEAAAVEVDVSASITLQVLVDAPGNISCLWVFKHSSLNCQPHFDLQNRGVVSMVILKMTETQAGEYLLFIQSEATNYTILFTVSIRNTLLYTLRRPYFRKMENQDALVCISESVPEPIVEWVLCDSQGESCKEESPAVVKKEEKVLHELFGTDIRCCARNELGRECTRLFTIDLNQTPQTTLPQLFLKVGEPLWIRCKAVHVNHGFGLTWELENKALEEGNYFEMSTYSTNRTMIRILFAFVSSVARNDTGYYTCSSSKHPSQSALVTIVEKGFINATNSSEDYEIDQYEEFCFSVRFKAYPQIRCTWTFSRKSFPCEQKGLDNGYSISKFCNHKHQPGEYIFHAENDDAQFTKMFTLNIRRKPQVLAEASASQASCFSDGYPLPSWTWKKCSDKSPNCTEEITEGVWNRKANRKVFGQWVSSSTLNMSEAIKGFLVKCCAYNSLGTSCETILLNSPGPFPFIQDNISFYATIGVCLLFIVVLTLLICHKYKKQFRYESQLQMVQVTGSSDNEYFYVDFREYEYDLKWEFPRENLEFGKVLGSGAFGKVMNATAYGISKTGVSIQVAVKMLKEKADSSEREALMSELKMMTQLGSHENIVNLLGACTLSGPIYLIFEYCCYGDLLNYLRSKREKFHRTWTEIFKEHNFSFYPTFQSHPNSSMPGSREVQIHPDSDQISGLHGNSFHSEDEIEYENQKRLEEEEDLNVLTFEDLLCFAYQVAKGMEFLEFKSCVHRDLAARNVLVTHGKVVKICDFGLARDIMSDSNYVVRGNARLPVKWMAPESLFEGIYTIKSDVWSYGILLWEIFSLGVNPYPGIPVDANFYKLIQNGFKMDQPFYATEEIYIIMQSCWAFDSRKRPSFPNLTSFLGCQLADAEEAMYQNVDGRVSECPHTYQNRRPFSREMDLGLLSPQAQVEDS
Briefly: Binding constant (Kd) measurement, phage-displayed kinase competition binding assay, FLT3. The gist of the method:
as §1

Experiment [4] deals with T3, KIT (Homo sapiens, UniProt P10721).
T3 construct: made in house
T3 sequence (P10721 26-976): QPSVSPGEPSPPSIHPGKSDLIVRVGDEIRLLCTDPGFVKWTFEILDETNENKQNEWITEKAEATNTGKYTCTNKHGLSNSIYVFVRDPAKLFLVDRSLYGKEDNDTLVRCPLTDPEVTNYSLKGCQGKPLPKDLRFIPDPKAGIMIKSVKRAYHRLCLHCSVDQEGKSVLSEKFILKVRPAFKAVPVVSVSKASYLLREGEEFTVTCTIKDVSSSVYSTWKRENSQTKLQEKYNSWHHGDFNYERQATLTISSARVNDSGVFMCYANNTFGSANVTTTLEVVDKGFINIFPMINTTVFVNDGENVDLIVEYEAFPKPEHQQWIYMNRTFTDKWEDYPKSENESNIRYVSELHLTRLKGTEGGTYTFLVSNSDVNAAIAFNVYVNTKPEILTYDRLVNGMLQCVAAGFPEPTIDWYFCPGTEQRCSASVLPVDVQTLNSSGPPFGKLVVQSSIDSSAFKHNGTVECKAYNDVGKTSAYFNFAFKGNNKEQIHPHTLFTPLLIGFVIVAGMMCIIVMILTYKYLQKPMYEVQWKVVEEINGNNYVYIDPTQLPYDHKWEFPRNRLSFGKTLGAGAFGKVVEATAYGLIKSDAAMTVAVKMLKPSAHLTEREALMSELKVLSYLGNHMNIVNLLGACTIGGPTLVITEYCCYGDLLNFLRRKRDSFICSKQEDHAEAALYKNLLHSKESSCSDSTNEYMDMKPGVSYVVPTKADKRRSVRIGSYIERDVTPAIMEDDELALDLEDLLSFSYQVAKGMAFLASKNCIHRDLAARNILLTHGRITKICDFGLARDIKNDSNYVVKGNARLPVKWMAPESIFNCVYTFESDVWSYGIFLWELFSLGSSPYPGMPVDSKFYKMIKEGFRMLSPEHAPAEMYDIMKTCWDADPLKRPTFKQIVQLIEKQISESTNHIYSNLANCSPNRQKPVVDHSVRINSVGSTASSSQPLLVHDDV
Briefly: Binding constant (Kd) measurement, phage-displayed kinase competition binding assay, KIT. The gist of the method:
as §1

The mark [5] stands for this setting: MV4-11 cells, 72 hour incubation, MTS, read-out: Cellular Assay MV-proliferation IC50.
The mark [6] stands for this setting: read-out: Binding Assay FLT3 Kd.

T1 sequence (P07333 20-972): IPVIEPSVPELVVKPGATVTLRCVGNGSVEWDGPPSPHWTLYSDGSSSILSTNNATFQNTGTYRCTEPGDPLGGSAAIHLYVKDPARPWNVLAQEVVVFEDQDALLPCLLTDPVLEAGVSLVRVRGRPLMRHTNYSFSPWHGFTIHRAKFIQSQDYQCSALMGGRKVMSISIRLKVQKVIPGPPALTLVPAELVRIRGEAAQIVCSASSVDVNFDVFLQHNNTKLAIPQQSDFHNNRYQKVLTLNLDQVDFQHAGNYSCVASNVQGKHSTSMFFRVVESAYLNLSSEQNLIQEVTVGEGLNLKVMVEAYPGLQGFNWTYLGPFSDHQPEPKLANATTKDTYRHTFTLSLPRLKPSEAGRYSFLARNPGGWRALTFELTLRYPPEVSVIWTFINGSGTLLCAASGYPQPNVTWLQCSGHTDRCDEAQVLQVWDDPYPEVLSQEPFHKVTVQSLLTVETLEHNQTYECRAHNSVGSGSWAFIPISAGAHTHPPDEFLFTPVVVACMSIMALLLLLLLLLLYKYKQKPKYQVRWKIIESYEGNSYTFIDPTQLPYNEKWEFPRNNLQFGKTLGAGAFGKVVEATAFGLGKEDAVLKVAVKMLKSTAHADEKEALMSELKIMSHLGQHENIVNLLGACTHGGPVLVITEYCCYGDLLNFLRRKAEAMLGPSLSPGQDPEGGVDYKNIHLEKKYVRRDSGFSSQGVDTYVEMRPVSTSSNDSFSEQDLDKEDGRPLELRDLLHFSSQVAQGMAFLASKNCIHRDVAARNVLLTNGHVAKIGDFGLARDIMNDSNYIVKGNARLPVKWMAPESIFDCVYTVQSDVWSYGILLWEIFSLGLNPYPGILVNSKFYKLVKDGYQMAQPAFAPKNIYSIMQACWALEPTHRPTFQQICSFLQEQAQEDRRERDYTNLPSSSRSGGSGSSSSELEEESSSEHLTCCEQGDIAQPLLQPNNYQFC

In the case of `CC(C)(C)c1cc(NC(=O)Nc2ccc(-c3cn4c(n3)sc3ccc(OCCN5CCOCC5)cc34)cc2)no1` [Compound B12, N-(5-tert-butyl-isoxazol-3-yl)-N′-{4-[6-(2-morpholin-4-yl-ethoxy)imidazo[2,1-b][1,3]benzothiazol-2-yl]phenyl}urea hydrochloride], the Kd in experiment [1] is 100 to 1000 nM; in experiment [3] (setting [6]), below 10 nM; in experiment [4], 10 to 100 nM. The IC50 in experiment [2] (setting [5]) was below 10 nM.

Turning to `CC(C)(C)c1cc(NC(=O)Nc2ccc(-c3cn4c(n3)sc3cc(CCC(=O)NCCN5CCCC5)ccc34)cc2)no1` [Compound C11, 3-(2-{4-[3-(5-tert-butyl-isoxazol-3-yl)-ureido]-phenyl}-benzo[d]imidazo[2,1-b]thiazol-7-yl)-N-(2-pyrrolidin-1-yl-ethyl)-propionamide hydrochloride], the dissociation constant Kd in experiment [1], in experiment [3] and in experiment [4] was below 10 nM throughout. Moreover, in experiment [2] (setting [5]), the IC50 was below 10 nM.

With `CCN1CCN(CCc2ccc3c(c2)sc2nc(-c4ccc(NC(=O)Nc5cc(C(C)(C)C)on5)cc4)cn23)CC1` [Compound D7, 1-(5-tert-Butyl-isoxazol-3-yl)-3-(4-{7-[2-(4-ethyl-piperazin-1-yl)-ethyl]-imidazo[2,1-b][1,3]benzothiazol-2-yl}-phenyl)-urea hydrochloride], the Kd in experiment [1], in experiment [3] and in experiment [4] was below 10 nM throughout. Further, the IC50 in experiment [2] (setting [5]) was below 10 nM.

With `CCN(CC)CCNC(=O)c1ccc2c(c1)sc1nc(-c3ccc(NC(=O)Nc4cc(C(C)(C)C)on4)cc3)cn12` [Compound C22, 2-{4-[3-(5-tert-butyl-isoxazol-3-yl)-ureido]-phenyl}-imidazo[2,1-b][1,3]benzothiazole-7-carboxylic acid (2-diethylamino-ethyl)-amide hydrochloride], the Kd in experiment [1] was 10 to 100 nM; in experiment [3], below 10 nM; in experiment [4] it was below 10 nM. Besides, the IC50 in experiment [2] (setting [5]) is below 10 nM.

Take `CC(C)(C)c1cc(NC(=O)Nc2ccc(-c3cn4c(n3)sc3cc(OCCCN5CCOCC5)ccc34)cc2)no1` [Compound B7, 1-(5-tert-butyl-isoxazol-3-yl)-3-{4-[7-(3-morpholin-4-yl-propoxy)-benzo[d]imidazo[2,1-b]thiazol-2-yl]-phenyl}-urea hydrochloride]: the values for the equilibrium dissociation constant (Kd) in experiment [1], in experiment [3] (setting [6]) and in experiment [4] were 10 to 100 nM, below 10 nM and 10 to 100 nM, respectively. Also, in experiment [2] (setting [5]), the IC50 is below 10 nM.

With `CCN1CCN(Cc2ccc3c(c2)sc2nc(-c4ccc(NC(=O)Nc5cc(C(C)(C)C)on5)cc4)cn23)CC1` [Compound D9, 1-(5-tert-Butyl-isoxazol-3-yl)-3-{4-[7-(4-ethyl-piperazin-1-ylmethyl)-imidazo[2,1-b][1,3]benzothiazol-2-yl]-phenyl}-urea hydrochloride], the dissociation constant Kd was 10 to 100 nM in experiment [1], below 10 nM in experiment [3] (setting [6]) and below 10 nM in experiment [4]. In experiment [2] (MV4-11, 72 h, read-out: Cellular Assay MV-proliferation IC50 (nM)), the IC50 was below 10 nM.

`CC(C)[C@@H](N)C(=O)Oc1ccc2c(c1)sc1nc(-c3ccc(NC(=O)Nc4cc(C(C)(C)C)on4)cc3)cn12` [Compound B5, (2R)-2-amino-3-methyl-butyric acid 2-{4-[3-(5-tert-butyl-isoxazol-3-yl)-ureido]-phenyl}-benzo[d]imidazo[2,1-b]thiazol-7-yl ester]: the Kd in experiment [1] was 10 to 100 nM; in experiment [3], below 10 nM; in experiment [4], 10 to 100 nM. Further, in experiment [2] (setting [5]), the IC50 is below 10 nM.
